The target of assay [1] is T1, subtilisin BPN′ (Bacillus amyloliquefaciens, UniProt P00782).
T1 construct: purchased Sigma-Aldrich (Tokyo, Japan)
Description: biochemical. The format is biochemical. The settings on record: for Inhibitory activity / binding in words, by Ki: synthetic substrate N‐suc‐AAPF‐pNA, compared with prototype ASIP or single mutants. Here is the method: Subtilisin BPN′ and N‐succinyl‐Ala‐Ala‐Pro‐Phe‐p‐nitroanilide (N‐suc‐AAPF‐pNA) were purchased from Sigma‐Aldrich (Tokyo, Japan). The oligopeptides used in this study were synthesized by Eurofins Genomics (Tokyo, Japan). The formation of an S‐S bond in each peptide was accomplished by incubating an equimolar amount of cystine with the peptide, and the concentrations of the oxidized peptides were determined by amino acid analyses after hydrolysis of the peptide with 6 M HCl at 110 °C for 24 h in vacuo.
The inhibitory activities of peptides against subtilisin BPN′ were preliminarily measured using the casein‐Folin method. First, casein was incubated with subtilisin BPN′ in the absence or presence of various molar ratios of synthetic peptides at 37 °C and pH 7.0 for 10 min. Trichloroacetic acid was added to the reaction mixture to precipitate the undigested casein, and the supernatant was mixed with sodium carbonate and Folin's phenol reagent. The absorbance at 660 nm was then measured to determine the amount of peptide obtained by digestion. Inhibitory activity was defined as the reduction in the amount of peptides derived from the enzymatic digestion of casein in the presence of a synthetic peptide when compared to the amount of peptides in the absence of synthetic peptides. To determine the K i values, the proteolytic activities of subtilisin BPN′ in the presence of various molar ratios of synthetic peptides were measured using a synthetic substrate, N‐suc‐AAPF‐pNA, as described previously, and then, the K i values were calculated by nonlinear curve fitting using the Morrison equation [13].

In assay [2] the target is T1, subtilisin BPN′. The conditions noted are these: against subtilisin BPN′; cited from earlier work.
The target of assay [3] is T1, subtilisin BPN′. Description: ASIP without a disulfide bond with subtilisin BPN′: inhibition and cleavage. The format is biochemical. The source says: To clarify the relationship between disulfide bond formation and its activity as a subtilisin inhibitor, we measured the inhibitory activities of ASIP with or without a disulfide bond. […] The inhibitory properties of the oxidized form of ASIP were then investigated.

The target in another assay is subtilisin Carlsberg. The conditions noted are these: against subtilisin Carlsberg; cited from earlier work. An excerpt:
Table 3 Proteinaceous subtilisin inhibitors. Amino acid residue lengths, sequences from the P4 to P4′ positions, and K i values against subtilisin BPN′ or Carlsberg of the inhibitors are listed. The most conserved residues at each position are shown in bold font. Residue numbers at the P1 position are indicated by superscript numbers.

Where two headings read alike, the source gives them in different places. Positions of bridges follow the written chain, without caps; N, C: chain ends. Residues, ends and D or L forms follow the SMILES beside them. No end group written: not given here.

T1 sequence (P00782 108-382): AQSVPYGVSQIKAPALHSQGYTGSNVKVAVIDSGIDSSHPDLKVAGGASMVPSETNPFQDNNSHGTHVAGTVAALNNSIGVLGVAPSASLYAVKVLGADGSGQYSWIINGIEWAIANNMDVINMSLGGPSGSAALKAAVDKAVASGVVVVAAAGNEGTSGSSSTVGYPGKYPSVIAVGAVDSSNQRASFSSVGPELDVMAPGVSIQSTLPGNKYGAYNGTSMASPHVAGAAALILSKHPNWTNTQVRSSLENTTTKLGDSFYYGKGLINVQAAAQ

`CC(C)C[C@@H]1NC(=O)[C@@H](NC(=O)[C@H](CO)NC(=O)[C@H](Cc2ccccc2)NC(=O)[C@H](CC(=O)O)NC(=O)[C@@H](N)CO)CSSC[C@@H](C(=O)N[C@@H](CCCNC(=N)N)C(=O)N[C@H](C(=O)O)[C@@H](C)O)NC(=O)CNC(=O)[C@H](CCC(=O)O)NC(=O)[C@H](CO)NC1=O` [ASIP] (H-SDFSCLSEGCRT-OH; disulfide 5-10) returned an inhibition constant Ki on subtilisin BPN′ [1] of 13 ± 1.64 nM.

`CC(C)C[C@@H]1NC(=O)[C@@H](NC(=O)[C@H](CO)NC(=O)[C@H](Cc2ccccc2)NC(=O)[C@H](CC(=O)O)NC(=O)[C@@H](N)CO)CSSC[C@@H](C(=O)N[C@@H](CCCNC(=N)N)C(=O)N[C@@H](C)C(=O)O)NC(=O)CNC(=O)[C@H](CCC(=O)O)NC(=O)[C@H](C)NC1=O` [S7A + T12A] (H-SDFSCLAEGCRA-OH; disulfide 5-10): the Ki on subtilisin BPN′ [1] is 2.72 ± 0.04 nM. `CC(C)C[C@@H]1NC(=O)[C@@H](NC(=O)[C@H](CO)NC(=O)[C@H](Cc2ccccc2)NC(=O)[C@H](CC(=O)O)NC(=O)[C@@H](N)CO)CSSC[C@@H](C(=O)N[C@@H](CCCNC(=N)N)C(=O)N[C@@H](CCCCN)C(=O)O)NC(=O)CNC(=O)[C@H](CCC(=O)O)NC(=O)[C@H](C)NC1=O` [S7A + T12K] (H-SDFSCLAEGCRK-OH; disulfide 5-10) returned a Ki at subtilisin BPN′ [1] of 0.3 ± 0.02 nM. On subtilisin BPN′ [1], `CC(C)C[C@@H]1NC(=O)[C@@H](NC(=O)[C@H](CO)NC(=O)[C@H](Cc2ccccc2)NC(=O)[C@H](CC(=O)O)NC(=O)[C@@H](N)CO)CSSC[C@@H](C(=O)N[C@@H](CCCNC(=N)N)C(=O)N[C@H](C(=O)O)[C@@H](C)O)NC(=O)CNC(=O)[C@H](CCC(=O)O)NC(=O)[C@H](C)NC1=O` [S7A] (H-SDFSCLAEGCRT-OH; disulfide 5-10) gave a Ki of 2.58 ± 0.2 nM.

On to `CC(C)C[C@@H]1NC(=O)[C@@H](NC(=O)[C@H](CO)NC(=O)[C@H](Cc2ccccc2)NC(=O)[C@H](CC(=O)O)NC(=O)[C@@H](N)CO)CSSC[C@@H](C(=O)N[C@@H](CCCNC(=N)N)C(=O)NCC(=O)O)NC(=O)CNC(=O)[C@H](CCC(=O)O)NC(=O)CNC1=O` [S7G + T12G] (H-SDFSCLGEGCRG-OH; disulfide 5-10), for which, on subtilisin BPN′ [1], the Ki was found to be 7.73 ± 0.34 nM.

`CC(C)C[C@@H]1NC(=O)[C@@H](NC(=O)[C@H](CO)NC(=O)[C@H](Cc2ccccc2)NC(=O)[C@H](CC(=O)O)NC(=O)[C@@H](N)CO)CSSC[C@@H](C(=O)N[C@@H](CCCNC(=N)N)C(=O)N[C@H](C(=O)O)[C@@H](C)O)NC(=O)CNC(=O)[C@H](CCC(=O)O)NC(=O)CNC1=O` [S7G] (H-SDFSCLGEGCRT-OH; disulfide 5-10): the Ki on subtilisin BPN′ [1] came to 5.14 ± 0.3 nM. As for `CC(C)C[C@@H]1NC(=O)[C@@H](NC(=O)[C@H](CO)NC(=O)[C@H](Cc2ccccc2)NC(=O)[C@H](CC(=O)O)NC(=O)[C@@H](N)CO)CSSC[C@@H](C(=O)N[C@@H](CCCNC(=N)N)C(=O)N[C@@H](C)C(=O)O)NC(=O)CNC(=O)[C@H](CCC(=O)O)NC(=O)[C@H](CO)NC1=O` [T12A] (H-SDFSCLSEGCRA-OH; disulfide 5-10), on subtilisin BPN′ [1], the affinity corresponds to a Ki of 17.4 ± 1.42 nM. Regarding `CC(C)C[C@@H]1NC(=O)[C@@H](NC(=O)[C@H](CO)NC(=O)[C@H](Cc2ccccc2)NC(=O)[C@H](CC(=O)O)NC(=O)[C@@H](N)CO)CSSC[C@@H](C(=O)N[C@@H](CCCNC(=N)N)C(=O)N[C@@H](CC(=O)O)C(=O)O)NC(=O)CNC(=O)[C@H](CCC(=O)O)NC(=O)[C@H](CO)NC1=O` [T12D] (H-SDFSCLSEGCRD-OH; disulfide 5-10), on subtilisin BPN′ [1], the affinity, expressed as Ki, was 23.1 ± 3.35 nM and the “Inhibitory activity / binding in words, by Ki” value (from here on “Inhibitory activity / binding”) is given as “decreased the inhibitory activity”.

Molecule `CC(C)C[C@@H]1NC(=O)[C@@H](NC(=O)[C@H](CO)NC(=O)[C@H](Cc2ccccc2)NC(=O)[C@H](CC(=O)O)NC(=O)[C@@H](N)CO)CSSC[C@@H](C(=O)N[C@@H](CCCNC(=N)N)C(=O)NCC(=O)O)NC(=O)CNC(=O)[C@H](CCC(=O)O)NC(=O)[C@H](CO)NC1=O` [T12G] (H-SDFSCLSEGCRG-OH; disulfide 5-10) returned a Ki on subtilisin BPN′ [1] of 10.6 ± 0.55 nM. For the molecule `CC(C)C[C@@H]1NC(=O)[C@@H](NC(=O)[C@H](CO)NC(=O)[C@H](Cc2ccccc2)NC(=O)[C@H](CC(=O)O)NC(=O)[C@@H](N)CO)CSSC[C@@H](C(=O)N[C@@H](CCCNC(=N)N)C(=O)N[C@@H](CCCCN)C(=O)O)NC(=O)CNC(=O)[C@H](CCC(=O)O)NC(=O)[C@H](CO)NC1=O` [T12K] (H-SDFSCLSEGCRK-OH; disulfide 5-10), on subtilisin BPN′ [1], the Ki was determined as 5.43 ± 0.29 nM; the “Inhibitory activity / binding” value is “significantly higher inhibition and binding affinity”. Regarding `CC(C)C[C@H](NC(=O)[C@H](CCCNC(=N)N)NC(=O)[C@@H]1CSSC[C@H](NC(=O)[C@H](CO)NC(=O)[C@H](Cc2ccccc2)NC(=O)[C@H](CC(=O)O)NC(=O)[C@@H](N)CO)C(=O)N[C@@H](CC(C)C)C(=O)N[C@@H](CO)C(=O)N[C@@H](CCC(=O)O)C(=O)NCC(=O)N1)C(=O)O` [T12L] (H-SDFSCLSEGCRL-OH; disulfide 5-10), the Ki at subtilisin BPN′ [1] was found to be 12.9 ± 1.02 nM.

For `CC(C)C[C@@H]1NC(=O)[C@@H](NC(=O)[C@H](CO)NC(=O)[C@H](Cc2ccccc2)NC(=O)[C@H](CC(=O)O)NC(=O)[C@@H](N)CO)CSSC[C@@H](C(=O)N[C@@H](CCCNC(=N)N)C(=O)N[C@@H](CCCNC(=N)N)C(=O)O)NC(=O)CNC(=O)[C@H](CCC(=O)O)NC(=O)[C@H](CO)NC1=O` [T12R] (H-SDFSCLSEGCRR-OH; disulfide 5-10), at subtilisin BPN′ [1], the inhibition constant Ki came out at 4.41 ± 0.24 nM; the “Inhibitory activity / binding” value is “significantly higher inhibition and binding affinity”. Turning to OMTKY3: turkey ovomucoid third domain, the Ki with subtilisin BPN′ [2] is 0.023 nM. Consider “SDFSCLSEGCRT (cysteine pairing not given here) [ASIP without a disulfide bond, ASIP without the Cys5‐Cys10 disulfide bond]”, for which, at subtilisin BPN′ [3] (ASIP without a disulfide bond, substrate not stated), the “Inhibitory activity against subtilisin BPN′ in words” value is recorded as “lacked inhibitory activity”. For the same molecule, the “Cleavage by subtilisin BPN′” value on subtilisin BPN′ [3] (reduced / linear form of ASIP, cleaved at the peptide bond between Leu6 and Ser7) is given as “specifically cleaved”. As to marinostatin (FATMRYPSDSDE) [MST], the inhibition constant Ki in the assay with subtilisin BPN′ [2] was 1.5 nM.

B1: EGL: leech eglin‐C (protein, UniProt P01051 1-70, looked up)
Eglin C: TEFGSELKSFPEVVGKTVDQAREYFTLHYPQYDVYFLPEGSPVTLDLRYNRVRVFYNPGTNVVNHVPHVG
On to B1, for which the inhibition constant Ki on subtilisin Carlsberg was 0.15 nM.

B2: SSI: Streptomyces subtilisin inhibitor (protein, UniProt P01006 32-144, looked up)
Subtilisin inhibitor: DAPSALYAPSALVLTVGKGVSATTAAPERAVTLTCAPGPSGTHPAAGSACADLAAVGGDLNALTRGEDVMCPMVYDPVLLTVDGVWQGKRVSYERVFSNECEMNAHGSSVFAF
Take B2: the inhibition constant Ki in the assay with subtilisin BPN′ [2] was 0.005 nM.

These data come from article PMC9623506, “Development of a novel peptide inhibitor of subtilisin BPN′” (FEBS Open Bio, 2022).
